Test results published in PubChem BioAssay AID256 (DTP/NCI, 2004).
Several values for one entry are separate records, joined by “and”; a condition that tells them apart may be missing. Equal values may be shown once. Toxic doses and inconclusive results are not listed.

Tested on: CD2F1 mice, L1210 leukemia ip, survival T/C
Assay: NCI In Vivo Anticancer Drug Screen. Data for tumor model L1210 Leukemia (intraperitoneal) in CD2F1 (CDF1) mice
Details: higher = longer survival
How it was run: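 Mice carrying a transplanted tumor received test compound or vehicle alone. The value is the measurement in the treated group divided by that in the vehicle-treated control group.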

[1] = endpoint: mean survival time, dose: 100.0 mg/kg/injection, schedule: Q04DX003 (ip), vehicle: saline
[2] = endpoint: mean survival time, dose: 200.0 mg/kg/injection, schedule: Q04DX003 (ip), vehicle: saline
[3] = endpoint: mean survival time, dose: 400.0 mg/kg/injection, schedule: Q04DX003 (ip), vehicle: saline
[4] = endpoint: mean survival time, dose: 50.0 mg/kg/injection, schedule: Q01DX009 (ip), vehicle: saline
[5] = endpoint: mean survival time, dose: 100.0 mg/kg/injection, schedule: Q01DX009 (ip), vehicle: saline
[6] = endpoint: mean survival time, dose: 200.0 mg/kg/injection, schedule: Q01DX009 (ip), vehicle: saline
[7] = endpoint: mean survival time, dose: 100.0 mg/kg/injection, schedule: Q01DX009 (ip), vehicle: saline with Tween-80
[8] = endpoint: mean survival time, dose: 100.0 mg/kg/injection, schedule: Q04DX003 (ip), vehicle: saline with Tween-80
[9] = endpoint: mean survival time, dose: 200.0 mg/kg/injection, schedule: Q01DX009 (ip), vehicle: saline with Tween-80
[10] = endpoint: mean survival time, dose: 200.0 mg/kg/injection, schedule: Q04DX003 (ip), vehicle: saline with Tween-80
[11] = endpoint: mean survival time, dose: 400.0 mg/kg/injection, schedule: Q01DX009 (ip), vehicle: saline with Tween-80
[12] = endpoint: mean survival time, dose: 400.0 mg/kg/injection, schedule: Q04DX003 (ip), vehicle: saline with Tween-80
[13] = endpoint: mean survival time, dose: 50.0 mg/kg/injection, schedule: Q04DX003 (ip), vehicle: saline with Tween-80
[14] = endpoint: mean survival time, dose: 75.0 mg/kg/injection, schedule: Q01DX001 (ip), vehicle: saline

Compound: Cc1cc(C)[nH]c(=O)n1
- T/C [1]: 94 % of control
- T/C [2]: 102 % of control
- T/C [3]: 94 % of control

Compound: CC1=CCC(O)(C(C)C)CC1 (stereo unspecified)
- T/C [1]: 96 % of control
- T/C [2]: 98 % of control
- T/C [3]: 102 % of control

Compound: CC(C)(C)[N+](=O)[O-]
- T/C [4]: 93 % of control
- T/C [5]: 93 % of control
- T/C [6]: 93 % of control

Compound: CCOC(=O)C(C(C)=O)C(c1ccc(OC)cc1)C(C(C)=O)C(=O)OCC (stereo unspecified)
- T/C [7]: 94 % of control
- T/C [8]: 100 % of control
- T/C [9]: 97 % of control
- T/C [10]: 99 % of control
- T/C [11]: 92 % of control
- T/C [12]: 106 % of control

Compound: CC(CCOP(=O)(N(CCCl)CCCl)N1CC1)OCc1ccccc1 (stereo unspecified)
- T/C (endpoint: mean survival time, dose: 22.0 mg/kg/injection, schedule: Q01DX001 (ip), vehicle: other): 108 % of control
- T/C (endpoint: mean survival time, dose: 33.0 mg/kg/injection, schedule: Q01DX001 (ip), vehicle: other): 111 % of control
- T/C (endpoint: mean survival time, dose: 50.0 mg/kg/injection, schedule: Q01DX001 (ip), vehicle: other): 153 % of control

Compound: NC(=S)N/N=C/c1ccc(OC(=O)COc2cc(Cl)c(Cl)cc2Cl)cn1
- T/C (endpoint: mean survival time, dose: 100.0 mg/kg/injection, schedule: Q04DX002 (ip), vehicle: saline with Tween-80): 122 % of control
- T/C (endpoint: mean survival time, dose: 200.0 mg/kg/injection, schedule: Q04DX002 (ip), vehicle: saline with Tween-80): 114 % of control
- T/C (endpoint: mean survival time, dose: 400.0 mg/kg/injection, schedule: Q04DX002 (ip), vehicle: saline with Tween-80): 122 % of control

Compound: O=C1C=C(C2CCCCC2)C(=O)c2ccccc21
- T/C [7]: 88 % of control
- T/C [8]: 98 % of control
- T/C [9]: 91 % of control
- T/C [10]: 92 % of control
- T/C [11]: 95 % of control
- T/C [12]: 95 % of control

Compound: COc1ccc(CCNC(=O)Cc2ccc3cc(OC)c(OC)cc3c2)cc1OC
- T/C [7]: 91 % of control
- T/C [8]: 95 % of control
- T/C [9]: 89 % of control
- T/C [10]: 100 % of control

Compound: O=c1cc[nH]c2c(-c3ccccc3)cccc12
- T/C (endpoint: mean survival time, dose: 37.5 mg/kg/injection, schedule: Q01DX009 (ip), vehicle: saline): 108 % of control
- T/C (endpoint: mean survival time, dose: 75.0 mg/kg/injection, schedule: Q01DX009 (ip), vehicle: saline): 105 % of control
- T/C (endpoint: mean survival time, dose: 75.0 mg/kg/injection, schedule: Q04DX003 (ip), vehicle: saline): 95 % of control
- T/C (endpoint: mean survival time, dose: 150.0 mg/kg/injection, schedule: Q01DX009 (ip), vehicle: saline): 97 % of control
- T/C (endpoint: mean survival time, dose: 150.0 mg/kg/injection, schedule: Q04DX003 (ip), vehicle: saline): 98 % of control
- T/C (endpoint: mean survival time, dose: 300.0 mg/kg/injection, schedule: Q04DX003 (ip), vehicle: saline): 97 % of control

Compound: CS/C([S-])=N/N=C\c1ccccn1.CS/C([S-])=N/N=C\c1ccccn1.[Ni+2]
- T/C [8]: 97 % of control
- T/C [10]: 96 % of control
- T/C [12]: 96 % of control

Compound: Cc1cc(N(C)C)ccc1N=Nc1cc[n+]([O-])c(C)c1
- T/C (endpoint: mean survival time, dose: 25.0 mg/kg/injection, schedule: Q01DX009 (ip), vehicle: saline with Tween-80): 103 % of control
- T/C (endpoint: mean survival time, dose: 50.0 mg/kg/injection, schedule: Q01DX009 (ip), vehicle: saline with Tween-80): 108 % of control
- T/C [7]: 103 % of control
- T/C [8]: 104 % of control
- T/C [10]: 102 % of control
- T/C [12]: 104 % of control

Compound: C1=CN2CCCN3C=CC=c4ccc(c2c43)=C1
- T/C (endpoint: mean survival time, dose: 7.5 mg/kg/injection, schedule: Q01DX001 (ip), vehicle: saline): 101 % of control
- T/C (endpoint: mean survival time, dose: 7.5 mg/kg/injection, schedule: Q04DX003 (ip), vehicle: saline): 97 % of control
- T/C (endpoint: mean survival time, dose: 15.0 mg/kg/injection, schedule: Q01DX001 (ip), vehicle: saline): 95 % of control
- T/C (endpoint: mean survival time, dose: 15.0 mg/kg/injection, schedule: Q04DX003 (ip), vehicle: saline): 105 % of control
- T/C (endpoint: mean survival time, dose: 30.0 mg/kg/injection, schedule: Q01DX001 (ip), vehicle: saline): 95 % of control
- T/C (endpoint: mean survival time, dose: 30.0 mg/kg/injection, schedule: Q04DX003 (ip), vehicle: saline): 97 % of control

Compound: c1ccc2c(c1)[nH]c1nc3ccncc3nc12
- T/C [4]: 96 % of control
- T/C [5]: 104 % of control
- T/C [6]: 95 % of control

Compound: Nc1nc(-c2ccccc2)nc2[nH]ncc12
- T/C (endpoint: mean survival time, dose: 100.0 mg/kg/injection, schedule: Q01DX001 (ip), vehicle: saline with Tween-80): 95 % of control
- T/C (endpoint: mean survival time, dose: 200.0 mg/kg/injection, schedule: Q01DX001 (ip), vehicle: saline with Tween-80): 95 % of control
- T/C (endpoint: mean survival time, dose: 400.0 mg/kg/injection, schedule: Q01DX001 (ip), vehicle: saline with Tween-80): 89 % of control

Compound: CCC1=NNC(=O)C1(Br)Br
- T/C (endpoint: mean survival time, dose: 12.5 mg/kg/injection, schedule: Q04DX003 (ip), vehicle: saline with Tween-80): 100 % of control
- T/C (endpoint: mean survival time, dose: 25.0 mg/kg/injection, schedule: Q04DX003 (ip), vehicle: saline with Tween-80): 102 % of control
- T/C [13]: 105 % of control

Compound: CC(=N\NC(=O)c1ccccc1)/C(C)=N/NC(=O)c1ccccc1
- T/C [8]: 90 % of control
- T/C [10]: 86 % of control
- T/C [12]: 90 % of control

Compound: CC(C)(CCC(C)(C)NCCCN)NCCCN
- T/C (endpoint: mean survival time, dose: 12.5 mg/kg/injection, schedule: Q01DX009 (ip), vehicle: water): 94 % of control
- T/C (endpoint: mean survival time, dose: 25.0 mg/kg/injection, schedule: Q01DX009 (ip), vehicle: water): 97 % of control
- T/C (endpoint: mean survival time, dose: 50.0 mg/kg/injection, schedule: Q01DX009 (ip), vehicle: water): 109 % of control

Compound: CC(C)(C)c1cc(CN2CCCC(O)C2)c(O)c(-c2ccccc2)c1 (stereo unspecified)
- T/C [4]: 107 % of control
- T/C [5]: 104 % of control

Compound: COc1csn[n+]1-c1ccc(C)cc1
- T/C [14]: 104 % of control

Compound: CC(C)c1ccc(C(=O)CCCCl)cc1
- T/C [7]: 98 % of control
- T/C [9]: 97 % of control
- T/C [11]: 97 % of control

Compound: CCC1(O)C(=O)OCc2c1cc1n(c2=O)Cc2cc3cc(C)ccc3nc2-1 (stereo unspecified)
- T/C (endpoint: median survival time, dose: 10.0 mg/kg/injection, schedule: Q04DX002 (ip), vehicle: saline with Tween-80): 151 % of control and 207 % of control
- T/C (endpoint: median survival time, dose: 20.0 mg/kg/injection, schedule: Q04DX002 (ip), vehicle: saline with Tween-80): 151 % of control and 192 % of control
- T/C (endpoint: median survival time, dose: 40.0 mg/kg/injection, schedule: Q04DX002 (ip), vehicle: saline with Tween-80): 162 % of control and 195 % of control
- T/C (endpoint: median survival time, dose: 80.0 mg/kg/injection, schedule: Q04DX002 (ip), vehicle: saline with Tween-80): 186 % of control
- T/C (endpoint: median survival time, dose: 160.0 mg/kg/injection, schedule: Q04DX002 (ip), vehicle: saline with Tween-80): 114 % of control

Compound: COC(=O)C1C2C=CC(C3C=CC32)C1C(=O)OC (stereo unspecified)
- T/C [7]: 97 % of control
- T/C [9]: 94 % of control
- T/C [11]: 95 % of control

Compound: COc1cc2c(c(OC)c1OC)-c1ccc(OC)c(=O)cc1C(=O)CC2
- T/C (endpoint: mean survival time, dose: 5.0 mg/kg/injection, schedule: Q01DX Z (ip), vehicle: saline): 121 % of control
- T/C (endpoint: mean survival time, dose: 7.0 mg/kg/injection, schedule: Q01DX Z (ip), vehicle: saline): 121 % of control
- T/C (endpoint: mean survival time, dose: 10.0 mg/kg/injection, schedule: Q01DX Z (ip), vehicle: saline): 114 % of control

Compound: CCCCNC(=O)C1C2CCC(C2)C1C(=O)NCCCC (stereo unspecified)
- T/C [8]: 98 % of control
- T/C [10]: 98 % of control
- T/C [12]: 90 % of control

Compound: Cc1cc2nc3c(nc2cc1C)-c1ccccc1C3=O
- T/C [8]: 94 % of control
- T/C [10]: 93 % of control
- T/C [12]: 94 % of control

Compound: C=C(C)C12CC(COC(=O)c3ccccc3)C34OC5(OC1C3C1OC1(COC(=O)CCCCCCCCCCCCCCC)C(O)C1(O)C(OC(=O)c3ccccc3)C(C)C(C(C)CCCCCCC5O)C14)O2 (stereo unspecified)
- T/C (endpoint: mean survival time, dose: 6.3 micrograms/kg/injection, schedule: Q01DX009 (ip), vehicle: saline): 107 % of control
- T/C (endpoint: mean survival time, dose: 12.5 micrograms/kg/injection, schedule: Q01DX009 (ip), vehicle: saline): 103 % of control
- T/C (endpoint: mean survival time, dose: 25.0 micrograms/kg/injection, schedule: Q01DX009 (ip), vehicle: saline): 102 % of control
- T/C (endpoint: mean survival time, dose: 50.0 micrograms/kg/injection, schedule: Q01DX009 (ip), vehicle: saline): 105 % of control

Compound: CCCOC(=O)C(SCCN(C)C)c1ccccc1 (stereo unspecified)
- T/C (endpoint: mean survival time, dose: 100.0 mg/kg/injection, schedule: Q01DX001 (ip), vehicle: saline): 102 % of control
- T/C [5]: 93 % of control
- T/C (endpoint: mean survival time, dose: 200.0 mg/kg/injection, schedule: Q01DX001 (ip), vehicle: saline): 97 % of control
- T/C [6]: 100 % of control
- T/C (endpoint: mean survival time, dose: 400.0 mg/kg/injection, schedule: Q01DX001 (ip), vehicle: saline): 94 % of control
- T/C (endpoint: mean survival time, dose: 400.0 mg/kg/injection, schedule: Q01DX009 (ip), vehicle: saline): 98 % of control

Compound: CCC(COC(=O)c1ccc([N+](=O)[O-])cc1)NC1CCCCC1 (stereo unspecified)
- T/C [14]: 102 % of control
- T/C (endpoint: mean survival time, dose: 150.0 mg/kg/injection, schedule: Q01DX001 (ip), vehicle: saline): 103 % of control
- T/C (endpoint: mean survival time, dose: 300.0 mg/kg/injection, schedule: Q01DX001 (ip), vehicle: saline): 101 % of control

Compound: O=C(C=C(C(F)(F)F)C(F)(F)F)c1ccc(Cl)c2ccccc12
- T/C [8]: 105 % of control

Compound: CC(=O)OC1(/N=[N+](/C)[O-])CCCC1
- T/C [13]: 167 % of control
- T/C [8]: 95 % of control
